Laboratory results published in patent publication US12459974B2, “Bicyclic peptide ligands specific for Nectin-4” (priority 2018, dated 2025).
*1 amine or outer side, *2 acyl side, *3 side chain or, on linkers, in order; H or OH if unused. Where a SMILES comes first, the peptide text is derived from it. Bridges are numbered along the chain shown (N, C = ends). Roman numbers before positions name the chains, in order. [ ]: non-standard residue; d: D form. The star is where a group is joined. ξ: configuration not given here. TATA = O=C(CC[*:1])N1CN(C(=O)CC[*:2])CN(C(=O)CC[*:3])C1; Dolaproine = CO[C@@H]([C@@H]1CCCN1)[C@@H](C)C(=O)O; X1 = CC[C@H](C)C(C(CC(=O)[*:2])OC)N(C)[*:1]; 1Nal = N[C@@H](Cc1cccc2ccccc12)C(=O)O; X3 = O=C(CCCC(=O)[*:2])NCCC(=O)[*:1]; PABC = O=C(OCc1ccc(N[*:1])cc1)[*:2]; Hyp = O=C(O)[C@@H]1C[C@@H](O)CN1; hArg = N=C(N)NCCCC[C@H](N)C(=O)O; Cit = NC(=O)NCCC[C@H](N)C(=O)O; X2 = CC(N*)[C@@H](O)c1ccccc1; ξNMeV = CNC(C(=O)O)C(C)C; ξV = CC(C)C(N)C(=O)O; Sar = CNCC(=O)O

Tested on: MDA-MB-468 xenograft
Assay: Example 4: in vivo efficacy in MDA-MB-468 xenograft (breast cancer model) in Balb/c nude mice
Set-up: species or system Mus Musculus

`CC[C@H](C)C(C(CC(=O)N1CCC[C@H]1[C@H](OC)[C@@H](C)C(=O)NC(C)[C@@H](O)c1ccccc1)OC)N(C)C(=O)[C@@H](NC(=O)C(C(C)C)N(C)C(=O)OCc1ccc(NC(=O)[C@H](CCCNC(N)=O)NC(=O)C(NC(=O)CCCC(=O)NCCC(=O)N(C)CC(=O)N(C)CC(=O)N(C)CC(=O)N(C)CC(=O)N(C)CC(=O)N(C)CC(=O)N(C)CC(=O)N(C)CC(=O)N(C)CC(=O)N(C)CC(=O)N[C@H]2CSCCC(=O)N3CN4CN(C3)C(=O)CCSC[C@H](NC(=O)[C@@H](CC(=O)O)NC(=O)[C@H](Cc3cccc5ccccc35)NC(=O)[C@@H]3CCCN3C2=O)C(=O)N[C@@H](CCSC)C(=O)N[C@@H](CCCCNC(=N)N)C(=O)N[C@@H](CC(=O)O)C(=O)N[C@@H](Cc2c[nH]c3ccccc23)C(=O)N[C@@H](CO)C(=O)N[C@@H]([C@@H](C)O)C(=O)N2CCC[C@H]2C(=O)N2C[C@H](O)C[C@H]2C(=O)N[C@@H](Cc2c[nH]c3ccccc23)C(=O)N[C@H](C(N)=O)CSCCC4=O)C(C)C)cc1)C(C)C` (stereo partly drawn) [BCY8245, MMAE-PABC-Cit-Val-Glutaryl-BCY8234] (I: [Sar][Sar][Sar][Sar][Sar][Sar][Sar][Sar][Sar][Sar]CP[1Nal][dD]CM[hArg]DWSTP[Hyp]WC-NH2 / II: [ξV][Cit][PABC][ξNMeV]V[X1][Dolaproine]-X2; linker I:11-I:15-I:25 via TATA; linker I:N-II:N via X3) was tested, and the TGI (3 mg/kg biw, day 21) was 169.8%, the “Tumor volume (TV)” value (3 mg/kg biw, day 21) was 22 mm^3 and the TGI (3 mg/kg qw, day 21) was 144.2%. For the same compound, the “Tumor volume (TV)” value (3 mg/kg qw, day 21) was 85 mm^3, the TGI (5 mg/kg qw, day 21) was 168.4% and the “Tumor volume (TV)” value (5 mg/kg qw, day 21) was 29 mm^3. For the same compound, the Tumor volume (3 mpk, biw, iv, day 0 after start of treatment) was 195 ± 33 mm^3, the Tumor volume (3 mpk, biw, iv, day 2) was 193 ± 27 mm^3 and the Tumor volume (3 mpk, biw, iv, day 4) was 154 ± 20 mm^3. The Tumor volume (3 mpk, biw, iv, day 7) was 103 ± 20 mm^3, the Tumor volume (3 mpk, biw, iv, day 9) was 83 ± 16 mm^3 and the Tumor volume (3 mpk, biw, iv, day 11) was 67 ± 14 mm^3. For the same compound, the Tumor volume (3 mpk, biw, iv, day 14) was 49 ± 11 mm^3, the Tumor volume (3 mpk, biw, iv, day 16) was 45 ± 14 mm^3 and the Tumor volume (3 mpk, biw, iv, day 18) was 32 ± 12 mm^3. The Tumor volume (3 mpk, biw, iv, day 21) was 22 ± 4 mm^3, the T/C (3 mpk, biw, day 21) was 4.9% and the TGI (3 mpk, biw, day 21) was 169.8%. For the same compound, the “Tumor volume” value (3 mpk, biw, day 21, Mean ± SEM (Table 22)) was 22 ± 4 mm^3, the Tumor volume (3 mpk, qw, iv, day 0 after start of treatment) was 194 ± 12 mm^3 and the Tumor volume (3 mpk, qw, iv, day 2) was 192 ± 26 mm^3. For the same compound, the Tumor volume (3 mpk, qw, iv, day 4) was 184 ± 20 mm^3, the Tumor volume (3 mpk, qw, iv, day 7) was 131 ± 20 mm^3 and the Tumor volume (3 mpk, qw, iv, day 9) was 113 ± 17 mm^3. The Tumor volume (3 mpk, qw, iv, day 11) was 104 ± 13 mm^3, the Tumor volume (3 mpk, qw, iv, day 14) was 94 ± 25 mm^3 and the Tumor volume (3 mpk, qw, iv, day 16) was 81 ± 23 mm^3. For the same compound, the Tumor volume (3 mpk, qw, iv, day 18) was 87 ± 23 mm^3, the Tumor volume (3 mpk, qw, iv, day 21) was 85 ± 31 mm^3 and the T/C (3 mpk, qw, day 21) was 18.9%. The TGI (3 mpk, qw, day 21) was 144.2%, the “Tumor volume” value (3 mpk, qw, day 21, Mean ± SEM (Table 22)) was 85 ± 31 mm^3 and the Tumor volume (5 mpk, qw, dosing suspended from day 21, day 23) was 35 ± 5 mm^3. The Tumor volume (5 mpk, qw, dosing suspended from day 21, day 25) was 48 ± 5 mm^3, the Tumor volume (5 mpk, qw, dosing suspended from day 21, day 28) was 37 ± 7 mm^3 and the Tumor volume (5 mpk, qw, dosing suspended from day 21, day 32) was 28 ± 6 mm^3. It also gave a Tumor volume (5 mpk, qw, dosing suspended from day 21, day 35) of 24 ± 4 mm^3, a Tumor volume (5 mpk, qw, dosing suspended from day 21, day 39) of 28 ± 6 mm^3 and a Tumor volume (5 mpk, qw, dosing suspended from day 21, day 42) of 26 ± 6 mm^3. It also gave a Tumor volume (5 mpk, qw, iv, day 0 after start of treatment) of 199 ± 28 mm^3, a Tumor volume (5 mpk, qw, iv, day 2) of 193 ± 11 mm^3 and a Tumor volume (5 mpk, qw, iv, day 4) of 135 ± 4 mm^3. The Tumor volume (5 mpk, qw, iv, day 7) was 98 ± 5 mm^3, the Tumor volume (5 mpk, qw, iv, day 9) was 58 ± 5 mm^3 and the Tumor volume (5 mpk, qw, iv, day 11) was 49 ± 5 mm^3. It also gave a Tumor volume (5 mpk, qw, iv, day 14) of 47 ± 2 mm^3, a Tumor volume (5 mpk, qw, iv, day 16) of 37 ± 4 mm^3 and a Tumor volume (5 mpk, qw, iv, day 18) of 35 ± 3 mm^3. The Tumor volume (5 mpk, qw, iv, day 21) was 29 ± 3 mm^3, the T/C (5 mpk, qw, day 21) was 6.6% and the TGI (5 mpk, qw, day 21) was 168.4%. The “Tumor volume” value (5 mpk, qw, day 21, Mean ± SEM (Table 22)) was 29 ± 3 mm^3.
